Laboratory results as given in publication PMC5421785, “Citrullination only infrequently impacts peptide binding to HLA class II MHC” (PLoS ONE, 2017).
Where two headings read alike, the source gives them in different places. Square brackets hold non-standard residues; d marks the D form. Ends that are not written are not given here. Peptide text beside a SMILES is read from it. Cit = NC(=O)NCCC[C@H](N)C(=O)O

Tests used:
HLA-DRB1*04:01 = biological target: T1, HLA-DRB1*04:01 (Homo sapiens, UniProt P01903+P01911, A100K/A169T/F76Y/I96L/K127E/L162R/M171V/N62H/P40V/Q125Y/R42H/S133A/S149N/S66Y/V115G/V209L/W38E); assay: HLA class II peptide binding, inhibition of radiolabeled peptide binding to purified MHC
T1 construct: EBV transformed homozygous cell lines were used as sources of MHC molecules; endogenous in cells; host or cells: EBV transformed homozygous cell lines

HLA-DRB1*01:01 = biological target: T2, HLA-DRB1*01:01 (Homo sapiens, UniProt P01903+P01911, A100R/D57E/F55L/F60I/F76Y/I96L/L162R/M171V/P40L/Q125E/R42F/V115G/Y59C); assay: as above
T2 construct: EBV transformed homozygous cell lines were used as sources of MHC molecules; endogenous in cells; host or cells: EBV transformed homozygous cell lines

[1] = read-out: DRB1*04:01 binding capacity, WT peptide (IC50 nM)
[2] = read-out: DRB1*01:01 binding capacity, WT peptide (IC50 nM)
[3] = citrullinated 15-mer (X), purified MHC, inhibition of radiolabeled peptide binding, dash = IC50 >40,000 nM, read-out: DRB1*04:01 binding capacity, Cit peptide (IC50 nM)
[4] = citrullinated 15-mer (X), purified MHC, inhibition of radiolabeled peptide binding, dash = IC50 >40,000 nM, read-out: DRB1*01:01 binding capacity, Cit peptide (IC50 nM)

Row | IC50 (HLA-DRB1*04:01; [1]) | IC50 (HLA-DRB1*01:01; [2]) | IC50 (HLA-DRB1*04:01; [3]) | IC50 (HLA-DRB1*01:01; [4]) | Compound | further results
1 |  |  |  |  | CSCC[C@H](NC(=O)[C@@H]1CCCN1C(=O)CNC(=O)[C@@H]1CCCN1C(=O)[C@H](CO)NC(=O)CNC(=O)[C@H](CC(N)=O)NC(=O)[C@@H](N)CCC(=O)O)C(=O)NCC(=O)N1CCC[C@H]1C(=O)N[C@@H](CCCNC(N)=O)C(=O)NCC(=O)N[C@@H](CC(C)C)C(=O)N1CCC[C@H]1C(=O)NCC(=O)O [ENGSPGPMGPXGLPG] (H-ENGSPGPMGP[Cit]GLPG-OH) | IC50 (HLA-DRB1*04:01; citrullinated 15-mer peptide (X = citrulline), purified HLA-DRB1*04:01, read-out: DRB1*04:01 binding capacity, Cit peptide (IC50 nM)): > 40000 nM; IC50 (HLA-DRB1*01:01; citrullinated 15-mer peptide (X = citrulline), purified HLA-DRB1*01:01, read-out: DRB1*01:01 binding capacity, Cit peptide (IC50 nM)): 31400 nM
2 | 860 nM | 3.4 nM |  |  | CC(C)C[C@H](NC(=O)[C@H](C)NC(=O)[C@H](CO)NC(=O)CN)C(=O)N[C@@H](CCCNC(=N)N)C(=O)N1CCC[C@H]1C(=O)N[C@@H](CO)C(=O)N[C@H](C(=O)N[C@@H](CO)C(=O)N[C@@H](CCCNC(=N)N)C(=O)N[C@@H](CO)C(=O)N[C@@H](CC(C)C)C(=O)N[C@@H](Cc1ccc(O)cc1)C(=O)N[C@@H](C)C(=O)N[C@@H](CO)C(=O)O)[C@@H](C)O [Vimentin 41 WT] | 
3 |  |  | 11600 nM | 33300 nM | CC(C)C[C@H](NC(=O)[C@@H](NC(=O)[C@H](CC(N)=O)NC(=O)[C@H](CCC(=O)O)NC(=O)[C@H](C)NC(=O)[C@H](CCC(=O)O)NC(=O)[C@H](CCC(=O)O)NC(=O)[C@@H](N)CCCNC(=N)N)[C@@H](C)O)C(=O)N[C@@H](CCC(N)=O)C(=O)N[C@@H](CO)C(=O)N[C@@H](Cc1ccccc1)C(=O)N[C@@H](CCCNC(N)=O)C(=O)N[C@@H](CCC(N)=O)C(=O)N[C@@H](CC(=O)O)C(=O)N[C@H](C(=O)O)C(C)C [REEAENTLQSFXQDV] (H-REEAENTLQSF[Cit]QDV-OH) | 
4 |  |  |  |  | CC[C@H](C)[C@H](NC(=O)[C@@H](NC(=O)[C@@H](NC(=O)[C@H](CCCCN)NC(=O)CN)[C@@H](C)O)C(C)C)C(=O)N[C@@H](CCC(=O)O)C(=O)N[C@@H](Cc1ccc(O)cc1)C(=O)N[C@@H](CCCNC(N)=O)C(=O)N[C@@H](CO)C(=O)N[C@@H](CCC(N)=O)C(=O)N[C@@H](CCCCN)C(=O)N[C@H](C(=O)N[C@@H](CO)C(=O)N[C@@H](CCCNC(=N)N)C(=O)N[C@@H](CC(C)C)C(=O)O)[C@@H](C)O [GKTVIEYXSQKTSRL] (H-GKTVIEY[Cit]SQKTSRL-OH) | IC50 (HLA-DRB1*04:01; citrullinated peptide as listed (X at Cit position), read-out: DRB1*04:01 binding capacity Cit peptide (IC50 nM)): 153 nM; IC50 (HLA-DRB1*04:01; value of the wild-type (non-citrullinated) counterpart of the listed peptide, read-out: DRB1*04:01 binding capacity WT peptide (IC50 nM)): 646 nM; IC50 (HLA-DRB1*01:01; citrullinated peptide as listed (X at Cit position), read-out: DRB1*01:01 binding capacity Cit peptide (IC50 nM)): 7.1 nM; IC50 (HLA-DRB1*01:01; value of the wild-type (non-citrullinated) counterpart of the listed peptide, read-out: DRB1*01:01 binding capacity WT peptide (IC50 nM)): 29 nM
5 |  |  | 27400 nM | 252 nM | CSCC[C@H](NC(=O)[C@H](CCCNC(=N)N)NC(=O)[C@H](CCCNC(N)=O)NC(=O)[C@@H](N)Cc1ccc(O)cc1)C(=O)N[C@@H](Cc1ccccc1)C(=O)NCC(=O)NCC(=O)N1CCC[C@H]1C(=O)NCC(=O)N[C@H](C(=O)N[C@@H](C)C(=O)N[C@@H](CO)C(=O)N[C@@H](CCCNC(=N)N)C(=O)N1CCC[C@H]1C(=O)N[C@@H](CO)C(=O)O)[C@@H](C)O [YXRMFGGPGTASRPS] (H-Y[Cit]RMFGGPGTASRPS-OH) | 
6 |  |  | 980 nM | 1080 nM | CSCC[C@H](NC(=O)[C@H](CCCNC(=N)N)NC(=O)[C@H](CCCNC(N)=O)NC(=O)[C@H](Cc1ccc(O)cc1)NC(=O)[C@H](CO)NC(=O)[C@H](CO)NC(=O)[C@H](CO)NC(=O)[C@H](CO)NC(=O)[C@@H](NC(=O)[C@H](CO)NC(=O)[C@H](CCCNC(=N)N)NC(=O)[C@@H](NC(=O)[C@H](CO)NC(=O)[C@@H](N)CCSC)[C@@H](C)O)C(C)C)C(=O)N[C@@H](Cc1ccccc1)C(=O)O [MSTRSVSSSSYXRMF] (H-MSTRSVSSSSY[Cit]RMF-OH) | 
7 | > 40000 nM | 248 nM |  |  | LLAELEQLKGQGKSR [Vimentin 131 WT] | 
8 | 513 nM | 5.7 nM |  |  | CC[C@H](C)[C@H](NC(=O)[C@H](CCCCN)NC(=O)[C@H](CC(N)=O)NC(=O)[C@H](CCC(N)=O)NC(=O)[C@H](CCC(N)=O)NC(=O)[C@H](CCC(=O)O)NC(=O)[C@H](CC(C)C)NC(=O)[C@H](Cc1ccccc1)NC(=O)[C@H](CCCNC(=N)N)NC(=O)[C@@H](N)C(C)C)C(=O)N[C@@H](CC(C)C)C(=O)N[C@@H](CC(C)C)C(=O)N[C@@H](C)C(=O)N[C@@H](CCC(=O)O)C(=O)N[C@@H](CC(C)C)C(=O)O [Vimentin 121 WT] | 
9 |  |  | 1630 nM | 12900 nM | CC(C)[C@H](NC(=O)[C@H](Cc1ccc(O)cc1)NC(=O)[C@H](CO)NC(=O)[C@H](CCCNC(N)=O)NC(=O)[C@H](CO)NC(=O)[C@H](CO)NC(=O)[C@H](CO)NC(=O)[C@@H]1CCCN1C(=O)[C@H](CCCNC(=N)N)NC(=O)[C@H](CO)NC(=O)[C@H](C)N)C(=O)N[C@H](C(=O)N[C@H](C(=O)N[C@@H](CO)C(=O)N[C@H](C(=O)O)[C@@H](C)O)[C@@H](C)O)[C@@H](C)O [ASRPSSSXSYVTTST] (H-ASRPSSS[Cit]SYVTTST-OH) | 
10 |  |  |  |  | AAGVKGDRGETGAVG [Collagen 1051 WT] | IC50 (HLA-DRB1*04:01; wild-type (unmodified Arg) 15-mer peptide, purified HLA-DRB1*04:01, read-out: DRB1*04:01 binding capacity, WT peptide (IC50 nM)): 25200 nM; IC50 (HLA-DRB1*01:01; wild-type (unmodified Arg) 15-mer peptide, purified HLA-DRB1*01:01, read-out: DRB1*01:01 binding capacity, WT peptide (IC50 nM)): 1150 nM
11 | > 40000 nM | 4570 nM |  |  | DNLAEDIMRLREKLQ [Vimentin 176 WT] | 
